Test results taken from article PMC12090182, “Repurposing of the RIPK1-Selective Benzo[1,4]oxazepin-4-one Scaffold for the Development of a Type III LIMK1/2 Inhibitor” (ACS Chemical Biology, 2025).
Read-outs that look alike come from different tables or passages of the source.

Assays:
Assay type in all cases: cell-based
HEK293T cells = details: human
Procedure: (§1) To assess the influence on cell health, a high-content screening in living cells called the multiplex high-content assay, as described previously by Tjaden et al., was performed.[38] In brief, HEK293T (ATCC CRL-1573) and U2OS (ATCCHTB-96) were cultured in DMEM plus L-glutamine (high glucose) supplemented by 10% FBS (Gibco) and penicillin/streptomycin (Gibco). MRC-9 fibroblasts ([…]) were cultured in EMEM plus L-glutamine supplemented by 10% FBS (Gibco) and penicillin/streptomycin (Gibco). Cells were seeded at a density of 1250 cells per well in a 384-well plate in a culture medium (cell culture microplate, PS, f-bottom, μClear, 781091, Greiner), with a volume of 50 μL per well. All outer wells were filled with 100 μL of PBS buffer (Gibco). […] The cell shape and fluorescence were measured before treatment and 12, 24, and 48 h after compound treatment using the CQ1 high-content confocal microscope (Yokogawa, Musashino, Japan). […] The compounds were tested at 1 and 10 μM, respectively. Acquired images of the cells were processed using Yokogawa CellPathfinder software (v3.04.02.02). […] Results were normalized to cells exposed to 0.1% DMSO. All compounds were tested in biological duplicates, and SEM (standard error of mean) was calculated of biological duplicates.

U2OS cells = details: human, 24 h, 1 µM
Procedure: as §1

MRC-9 cells = experiment: Multiplex high-content viability assessment; details: human fibroblast
Procedure: as §1

[1] = 1 µM, 0 h, biological replicate 1
[2] = 1 µM, 12 h, biological replicate 1
[3] = 1 µM, 24 h, biological replicate 1
[4] = 1 µM, 48 h, biological replicate 1
[5] = 1 µM, 0 h after treatment, biological replicate 2
[6] = 1 µM, 12 h after treatment, biological replicate 2
[7] = 1 µM, 24 h after treatment, biological replicate 2
[8] = 1 µM, 48 h after treatment, biological replicate 2
[9] = 10 µM, 0 h, biological replicate 1
[10] = 10 µM, 12 h, biological replicate 1
[11] = 10 µM, 24 h, biological replicate 1
[12] = 10 µM, 48 h, biological replicate 1
[13] = 10 µM, 0 h after treatment, biological replicate 2
[14] = 10 µM, 12 h after treatment, biological replicate 2
[15] = 10 µM, 24 h after treatment, biological replicate 2
[16] = 10 µM, 48 h after treatment, biological replicate 2

SMILES: CCCCN(Cc1ccccc1)C(=O)c1ccc(S(=O)(=O)Nc2ccccc2)cc1 [TH257]
- Population with membrane disruption (%) (HEK293T cells; 0 h, 1 µM): 0.00%
- Population with membrane disruption (%) (HEK293T cells; 0 h, 10 µM): 0.00%
- Population with membrane disruption (%) (HEK293T cells; 24 h, 10 µM): 0.00%
- Cell count per well (U2OS cells): 316
- Cell count normalized to cells treated with DMSO control (MRC-9 cells; [1]): 1.114
- Cell count per well (MRC-9 cells; [1]): 167
- Population Fragmented Nuclei (%) (MRC-9 cells; [1]): 8.59%
- Population Healthy Nuclei (%) (MRC-9 cells; [1]): 70.55%
- Population Pyknosed Nuclei (%) (MRC-9 cells; [1]): 20.86%
- Population apoptotic cell (%) (MRC-9 cells; [1]): 41.18%
- Population cell that influence microtubule strucutre (%) (MRC-9 cells; [1]): 18.26%
- Population with increased mitochondrial mass (%) (MRC-9 cells; [1]): 10.43%
- Population with membrane disruption (%) (MRC-9 cells; [1]): 0.87%
- Cell count normalized to cells treated with DMSO control (MRC-9 cells; [2]): 1.0759
- Cell count per well (MRC-9 cells; [2]): 162
- Population Fragmented Nuclei (%) (MRC-9 cells; [2]): 8.18%
- Population Healthy Nuclei (%) (MRC-9 cells; [2]): 74.84%
- Population Pyknosed Nuclei (%) (MRC-9 cells; [2]): 16.98%
- Population apoptotic cell (%) (MRC-9 cells; [2]): 37.04%
- Population cell that influence microtubule strucutre (%) (MRC-9 cells; [2]): 23.53%
- Population with increased mitochondrial mass (%) (MRC-9 cells; [2]): 5.88%
- Population with membrane disruption (%) (MRC-9 cells; [2]): 1.68%
- Cell count normalized to cells treated with DMSO control (MRC-9 cells; [3]): 1.074
- Cell count per well (MRC-9 cells; [3]): 162
- Population Fragmented Nuclei (%) (MRC-9 cells; [3]): 8.86%
- Population Healthy Nuclei (%) (MRC-9 cells; [3]): 76.58%
- Population Pyknosed Nuclei (%) (MRC-9 cells; [3]): 14.56%
- Population apoptotic cell (%) (MRC-9 cells; [3]): 43.48%
- Population cell that influence microtubule strucutre (%) (MRC-9 cells; [3]): 23.97%
- Population with increased mitochondrial mass (%) (MRC-9 cells; [3]): 5.79%
- Population with membrane disruption (%) (MRC-9 cells; [3]): 0.00%
- Cell count normalized to cells treated with DMSO control (MRC-9 cells; [4]): 1.094
- Cell count per well (MRC-9 cells; [4]): 166
- Population Fragmented Nuclei (%) (MRC-9 cells; [4]): 14.56%
- Population Healthy Nuclei (%) (MRC-9 cells; [4]): 76.58%
- Population Pyknosed Nuclei (%) (MRC-9 cells; [4]): 8.86%
- Population apoptotic cell (%) (MRC-9 cells; [4]): 64.29%
- Population cell that influence microtubule strucutre (%) (MRC-9 cells; [4]): 20.66%
- Population with increased mitochondrial mass (%) (MRC-9 cells; [4]): 0.83%
- Population with membrane disruption (%) (MRC-9 cells; [4]): 0.83%
- Cell count normalized to cells treated with DMSO control (MRC-9 cells; [5]): 1.076
- Cell count per well (MRC-9 cells; [5]): 192
- Population Fragmented Nuclei (%) (MRC-9 cells; [5]): 13.26%
- Population Healthy Nuclei (%) (MRC-9 cells; [5]): 56.35%
- Population Pyknosed Nuclei (%) (MRC-9 cells; [5]): 30.39%
- Population apoptotic cell (%) (MRC-9 cells; [5]): 34.55%
- Population cell that influence microtubule strucutre (%) (MRC-9 cells; [5]): 45.10%
- Population with increased mitochondrial mass (%) (MRC-9 cells; [5]): 3.92%
- Population with membrane disruption (%) (MRC-9 cells; [5]): 7.84%
- Cell count normalized to cells treated with DMSO control (MRC-9 cells; [6]): 1.0446
- Cell count per well (MRC-9 cells; [6]): 174
- Population Fragmented Nuclei (%) (MRC-9 cells; [6]): 19.08%
- Population Healthy Nuclei (%) (MRC-9 cells; [6]): 51.97%
- Population Pyknosed Nuclei (%) (MRC-9 cells; [6]): 28.95%
- Population apoptotic cell (%) (MRC-9 cells; [6]): 25.00%
- Population cell that influence microtubule strucutre (%) (MRC-9 cells; [6]): 64.56%
- Population with increased mitochondrial mass (%) (MRC-9 cells; [6]): 13.92%
- Population with membrane disruption (%) (MRC-9 cells; [6]): 7.59%
- Cell count normalized to cells treated with DMSO control (MRC-9 cells; [7]): 0.9402
- Cell count per well (MRC-9 cells; [7]): 155
- Population Fragmented Nuclei (%) (MRC-9 cells; [7]): 16.78%
- Population Healthy Nuclei (%) (MRC-9 cells; [7]): 57.34%
- Population Pyknosed Nuclei (%) (MRC-9 cells; [7]): 25.87%
- Population apoptotic cell (%) (MRC-9 cells; [7]): 35.14%
- Population cell that influence microtubule strucutre (%) (MRC-9 cells; [7]): 70.73%
- Population with increased mitochondrial mass (%) (MRC-9 cells; [7]): 4.88%
- Population with membrane disruption (%) (MRC-9 cells; [7]): 13.41%
- Cell count per well (MRC-9 cells; [8]): 166
- Population Fragmented Nuclei (%) (MRC-9 cells; [8]): 32.10%
- Population Healthy Nuclei (%) (MRC-9 cells; [8]): 49.38%
- Population Pyknosed Nuclei (%) (MRC-9 cells; [8]): 18.52%
- Population apoptotic cell (%) (MRC-9 cells; [8]): 50.00%
- Population cell that influence microtubule strucutre (%) (MRC-9 cells; [8]): 76.25%
- Population with increased mitochondrial mass (%) (MRC-9 cells; [8]): 3.75%
- Population with membrane disruption (%) (MRC-9 cells; [8]): 8.75%
- Cell count normalized to cells treated with DMSO control (MRC-9 cells; [9]): 1.048
- Cell count per well (MRC-9 cells; [9]): 157
- Population Fragmented Nuclei (%) (MRC-9 cells; [9]): 18.47%
- Population Healthy Nuclei (%) (MRC-9 cells; [9]): 59.24%
- Population Pyknosed Nuclei (%) (MRC-9 cells; [9]): 22.29%
- Population apoptotic cell (%) (MRC-9 cells; [9]): 34.29%
- Population cell that influence microtubule strucutre (%) (MRC-9 cells; [9]): 23.66%
- Population with increased mitochondrial mass (%) (MRC-9 cells; [9]): 3.23%
- Population with membrane disruption (%) (MRC-9 cells; [9]): 0.00%
- Cell count normalized to cells treated with DMSO control (MRC-9 cells; [10]): 1.149
- Cell count per well (MRC-9 cells; [10]): 173
- Population Fragmented Nuclei (%) (MRC-9 cells; [10]): 12.35%
- Population Healthy Nuclei (%) (MRC-9 cells; [10]): 58.02%
- Population Pyknosed Nuclei (%) (MRC-9 cells; [10]): 29.63%
- Population apoptotic cell (%) (MRC-9 cells; [10]): 35.42%
- Population cell that influence microtubule strucutre (%) (MRC-9 cells; [10]): 80.85%
- Population with increased mitochondrial mass (%) (MRC-9 cells; [10]): 13.83%
- Population with membrane disruption (%) (MRC-9 cells; [10]): 4.26%
- Cell count normalized to cells treated with DMSO control (MRC-9 cells; [11]): 1.094
- Cell count per well (MRC-9 cells; [11]): 165
- Population Fragmented Nuclei (%) (MRC-9 cells; [11]): 16.25%
- Population Healthy Nuclei (%) (MRC-9 cells; [11]): 66.25%
- Population Pyknosed Nuclei (%) (MRC-9 cells; [11]): 17.50%
- Population apoptotic cell (%) (MRC-9 cells; [11]): 57.14%
- Population cell that influence microtubule strucutre (%) (MRC-9 cells; [11]): 88.68%
- Population with increased mitochondrial mass (%) (MRC-9 cells; [11]): 11.32%
- Population with membrane disruption (%) (MRC-9 cells; [11]): 1.89%
- Cell count normalized to cells treated with DMSO control (MRC-9 cells; [12]): 1.18
- Cell count per well (MRC-9 cells; [12]): 179
- Population Fragmented Nuclei (%) (MRC-9 cells; [12]): 23.84%
- Population Healthy Nuclei (%) (MRC-9 cells; [12]): 63.37%
- Population Pyknosed Nuclei (%) (MRC-9 cells; [12]): 12.79%
- Population apoptotic cell (%) (MRC-9 cells; [12]): 72.73%
- Population cell that influence microtubule strucutre (%) (MRC-9 cells; [12]): 85.32%
- Population with increased mitochondrial mass (%) (MRC-9 cells; [12]): 20.18%
- Population with membrane disruption (%) (MRC-9 cells; [12]): 0.92%
- Cell count normalized to cells treated with DMSO control (MRC-9 cells; [13]): 0.8298
- Cell count per well (MRC-9 cells; [13]): 148
- Population Fragmented Nuclei (%) (MRC-9 cells; [13]): 24.82%
- Population Healthy Nuclei (%) (MRC-9 cells; [13]): 45.39%
- Population Pyknosed Nuclei (%) (MRC-9 cells; [13]): 29.79%
- Population apoptotic cell (%) (MRC-9 cells; [13]): 47.62%
- Population cell that influence microtubule strucutre (%) (MRC-9 cells; [13]): 40.63%
- Population with increased mitochondrial mass (%) (MRC-9 cells; [13]): 9.38%
- Population with membrane disruption (%) (MRC-9 cells; [13]): 3.13%
- Cell count normalized to cells treated with DMSO control (MRC-9 cells; [14]): 0.8645
- Cell count per well (MRC-9 cells; [14]): 144
- Population Fragmented Nuclei (%) (MRC-9 cells; [14]): 24.46%
- Population Healthy Nuclei (%) (MRC-9 cells; [14]): 56.83%
- Population Pyknosed Nuclei (%) (MRC-9 cells; [14]): 18.71%
- Population apoptotic cell (%) (MRC-9 cells; [14]): 50.00%
- Population cell that influence microtubule strucutre (%) (MRC-9 cells; [14]): 86.08%
- Population with increased mitochondrial mass (%) (MRC-9 cells; [14]): 13.92%
- Population with membrane disruption (%) (MRC-9 cells; [14]): 12.66%
- Cell count normalized to cells treated with DMSO control (MRC-9 cells; [15]): 0.8917
- Cell count per well (MRC-9 cells; [15]): 147
- Population Fragmented Nuclei (%) (MRC-9 cells; [15]): 25.18%
- Population Healthy Nuclei (%) (MRC-9 cells; [15]): 59.71%
- Population Pyknosed Nuclei (%) (MRC-9 cells; [15]): 15.11%
- Population apoptotic cell (%) (MRC-9 cells; [15]): 57.14%
- Population cell that influence microtubule strucutre (%) (MRC-9 cells; [15]): 91.57%
- Population with increased mitochondrial mass (%) (MRC-9 cells; [15]): 19.28%
- Population with membrane disruption (%) (MRC-9 cells; [15]): 4.82%
- Cell count normalized to cells treated with DMSO control (MRC-9 cells; [16]): 0.964
- Cell count per well (MRC-9 cells; [16]): 157
- Population Fragmented Nuclei (%) (MRC-9 cells; [16]): 30.32%
- Population Healthy Nuclei (%) (MRC-9 cells; [16]): 59.35%
- Population Pyknosed Nuclei (%) (MRC-9 cells; [16]): 10.32%
- Population apoptotic cell (%) (MRC-9 cells; [16]): 56.25%
- Population cell that influence microtubule strucutre (%) (MRC-9 cells; [16]): 89.13%
- Population with increased mitochondrial mass (%) (MRC-9 cells; [16]): 18.48%
- Population with membrane disruption (%) (MRC-9 cells; [16]): 0.00%
